The values below come from PubChem BioAssay AID493110 (The Scripps Research Institute Molecular Screening Center, 2011).

Calls of active or inactive are those of the source. The rule behind the calls is not given here.

One assay has as its target LYPLA1. In words: LYPLA1 and LYPLA2 inhibitor potency, dose response, biochemical, gel-based ABPP (AID 493110). The conditions noted are these: competitive probe labeling.
For a further assay, the target named is LYPLA2. The assay is described as above. The conditions noted are these: competitive probe labeling.

In the case of `CC(C)(O)c1cnn(C(=O)N2CCC(C(C)(C)C)CC2)n1`, the values for the IC50 on LYPLA1 and on LYPLA2 were 44 nM and 97 nM, respectively.
On the same counts, the results for `CC(C)(C)C1CCN(C(=O)n2ncc(C(O)(c3ccccc3)c3ccccc3)n2)CC1` are 17 nM and 30 nM.
On the same counts, the results for `O=C(N1CCOCC1)n1nnc2ccccc21` are 795 nM and “inactive”.
On the same counts, the results for `CCC1CCCCN1C(=O)n1ncc(C(O)(c2ccccc2)c2ccccc2)n1` (stereo not given) are > 10000 nM (inactive) and > 10000 nM (inactive).
In the case of `CC(C)(C)C1CCN(C(=O)n2ncc(C3(O)CCCCC3)n2)CC1`, the values for the IC50 at LYPLA1 and on LYPLA2 were 35 nM and 57 nM, respectively.
